The source of these data is patent publication US9174982B2, “Apoptosis-inducing agents for the treatment of cancer and immune and autoimmune diseases” (AbbVie Inc., priority 2009, dated 2015).

One data set addresses GST-Bcl-2 (Homo sapiens (Human), UniProt P10415). The data set is described as follows: Time Resolved-Fluorescence Resonance Energy Transfer (TR-FRET) Bcl-2 binding assay. The conditions noted are these: GST-Bcl-2 1 nM, F-Bak peptide probe 100 nM, Tb-anti-GST 1 nM; 3 hours at room temperature; < means below limit of detection. (In TR-FRET formats the signal depends on donor and acceptor labels being close together.)

Data set [1] relates to RS4;11 cells. The data set is described as follows: RS4;11 cell viability assay. Type of data set: cell-based. Particulars: 10% human serum, 48 hours, CellTiter Glo.
Protocol: Cell cytotoxicity EC50 values were assessed using CellTiter Glo (Promega) according to the manufacturer's recommendations. The EC50 values were determined as a percentage of viable cells following treatment compared to the untreated control cells.
Data set [2] concerns RS4;11 cells. Particulars: Blood, 2008, Vol. 111, 2300-2309; cited from earlier work.
The nature of data set [3]: stability of coupling product during workup and chromatography, monitored by HPLC/MS. Type of data set: physicochemical. The conditions noted are these: peak disappeared during workup and chromatography. Here is the method: Specifically, this was discovered by the inventors in the following compound preparation. The intermediate structure F, that directly precedes the final product of the unstable compound, was prepared according to the route below. All intermediates A-F were stable and isolable using techniques known to those skilled in the art.
Intermediate F, shown in the scheme above, was reacted with intermediate G using standard coupling conditions that are known to those skilled in the art. The reaction mixture was analyzed via HPLC/MS to monitor the formation of a peak corresponding to the compound H. While this peak formed within hours of initiating the reaction below, the peak progressively disappeared during workup and chromatography, until it no longer was present. The lack of stability of the putative compound originates from the position of the nitrogen within the fused ring-system described above. This position, which is adjacent to the oxygen-bearing carbon in the 5-substituted-1H-pyrrolo[2,3-c]pyridine ring system shown below and described above, makes the compound H unstable.

Chain of GST-Bcl-2 (P10415 whole entry): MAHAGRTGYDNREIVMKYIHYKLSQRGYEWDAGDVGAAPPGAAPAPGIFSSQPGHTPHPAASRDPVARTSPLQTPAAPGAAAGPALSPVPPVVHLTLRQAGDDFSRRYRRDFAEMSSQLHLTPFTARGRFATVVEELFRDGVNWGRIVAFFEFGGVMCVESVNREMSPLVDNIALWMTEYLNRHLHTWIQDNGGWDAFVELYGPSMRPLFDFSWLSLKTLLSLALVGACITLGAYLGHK
Protocol for GST-Bcl-2: Determination of the utility of compounds having Formula (I) as binders to and inhibitors of anti-apoptotic Bcl-2 proteins was performed using the Time Resolved-Fluorescence Resonance Energy Transfer (TR-FRET) Assay.
Representative compounds were serially diluted in dimethyl sulfoxide (DMSO) starting at 50 μM (2× starting concentration; 10% DMSO) and 10 μL were transferred into a 384-well plate. The samples are then mixed on a shaker for 1 minute and incubated for an additional 3 hours at room temperature. For each assay, the probe/antibody and protein/probe/antibody were included on each assay plate as negative and positive controls, respectively.
The samples were then mixed on a shaker for 1 minute and incubated for an additional 3 hours at room temperature. For each assay, the probe/antibody and protein/probe/antibody were included on each assay plate as negative and positive controls, respectively.

Regarding `C[C@]1(O)CC[C@@H](COc2ncc(S(=O)(=O)NC(=O)c3ccc(N4CCN(CC5=C(c6ccc(Cl)cc6)CC6(CC5)CC6)CC4)cc3Oc3cnc4[nH]ccc4c3)cc2Cl)CC1` [Example 341, N-({5-chloro-6-[(trans-4-hydroxy-4-methylcyclohexyl)methoxy]pyridin-3-yl}sulfonyl)-4-(4-{[5-(4-chlorophenyl)spiro[2.5]oct-5-en-6-yl]methyl}piperazin-1-yl)-2-(1H-pyrrolo[2,3-b]pyridin-5-yloxy)benzamide], the Ki on GST-Bcl-2 is less than 0.01 nM. This compound also displayed an EC50 in the data set on RS4;11 cells [1] of 31.7 nM.
For `COC1(C)CCC(c2ccc(Cl)cc2)=C(CN2CCN(c3ccc(C(=O)NS(=O)(=O)c4ccc(NC[C@H]5CC[C@@](C)(O)CC5)c([N+](=O)[O-])c4)c(Oc4cnc5[nH]ccc5c4)c3)CC2)C1` (stereo partly drawn) [Example 377, 4-(4-{[2-(4-chlorophenyl)-5-methoxy-5-methylcyclohex-1-en-1-yl]methyl}piperazin-1-yl)-N-[(4-{[(trans-4-hydroxy-4-methylcyclohexyl)methyl]amino}-3-nitrophenyl)sulfonyl]-2-(1H-pyrrolo[2,3-b]pyridin-5-yloxy)benzamide], at GST-Bcl-2, the Ki was less than 0.001 nM.
For “4-(4-{[2-(4-chlorophenyl)-4,4-dimethylcyclohex-1-en-1-yl]methyl}piperazin-1-yl)-N-({3-(pentafluoro-lambda-6-sulfanyl)-4-[(tetrahydro-2H-pyran-4-ylmethyl)amino]phenyl}sulfonyl)-2-(1H-pyrrolo[2,3-b]pyridin-5-yloxy)benzamide [Example 233]”, the Ki at GST-Bcl-2 is 1.65 nM. The compound further returned an EC50 in the data set with RS4;11 cells [1] greater than 1000 nM.
In the case of `CC1(C)CCC(CN2CCN(c3ccc(C(=O)NS(=O)(=O)c4ccc(NC[C@H]5CC[C@@](C)(O)CC5)c([N+](=O)[O-])c4)c(Oc4cnc5[nH]ccc5c4)c3)CC2)=C(c2ccc(Cl)cc2)C1` [Example 337, 4-(4-{[2-(4-chlorophenyl)-4,4-dimethylcyclohex-1-en-1-yl]methyl}piperazin-1-yl)-N-[(4-{[(trans-4-hydroxy-4-methylcyclohexyl)methyl]amino}-3-nitrophenyl)sulfonyl]-2-(1H-pyrrolo[2,3-b]pyridin-5-yloxy)benzamide], in the data set on RS4;11 cells [1], the EC50 was determined as 1.76 nM. This lies in the single-digit nanomolar range.
`CC1(C)CCC(CN2CCN(c3ccc(C(=O)NS(=O)(=O)c4ccc(OCC5COCCN5C5CCOCC5)c([N+](=O)[O-])c4)c(Oc4cnc5[nH]ccc5c4)c3)CC2)=C(c2ccc(Cl)cc2)C1` (stereo not drawn) [Example 104, 4-(4-{[2-(4-chlorophenyl)-4,4-dimethylcyclohex-1-en-1-yl]methyl}piperazin-1-yl)-N({3-nitro-4-[(4-tetrahydro-2H-pyran-4-ylmorpholin-3-yl)methoxy]phenyl}sulfonyl)-2-(1H-pyrrolo[2,3-b]pyridin-5-yloxy)benzamide] came in with a Ki on GST-Bcl-2 of 0.016 nM. Besides, in the data set on RS4;11 cells [1], the response was half-maximal at 71.2 nM (EC50).
On to `CN(C)CC[C@H](CSc1ccccc1)Nc1ccc(S(=O)(=O)NC(=O)c2ccc(N3CCN(Cc4ccccc4-c4ccc(Cl)cc4)CC3)cc2)cc1[N+](=O)[O-]` [ABT-737, N-(4-(4-((4′-chloro(1,1′-biphenyl)-2-yl)methyl)piperazin-1-yl)benzoyl)-4-(((1R)-3-(dimethylamino)-1-((phenylsulfanyl)methyl)propyl)amino)-3-nitrobenzenesulfonamide], for which the “sensitivity of RS4; 11 cells to the inhibitor” value with RS4;11 cells [2] was “sensitive”.
As for “4-(4-{[2-(4-chlorophenyl)-4,4-dimethylcyclohex-1-en-1-yl]methyl}piperazin-1-yl)-N-{[4-({[(E)-4-hydroxy-1-adamantyl]methyl}amino)-3-nitrophenyl]sulfonyl}-2-(1H-pyrrolo[2,3-b]pyridin-5-yloxy)benzamide [Example 199]”, the Ki on GST-Bcl-2 is less than 0.01 nM. In addition, it took 5.06 nM to reach a half-maximal effect in the data set on RS4;11 cells [1] (EC50).
On GST-Bcl-2, `CCC1(O)CCC(CNc2ccc(S(=O)(=O)NC(=O)c3ccc(N4CCN(CC5=C(c6ccc(Cl)cc6)CC(C)(C)CC5)CC4)cc3Oc3cnc4[nH]ccc4c3)cc2[N+](=O)[O-])CC1` (stereo not drawn) [Example 358, 4-(4-{[2-(4-chlorophenyl)-4,4-dimethylcyclohex-1-en-1-yl]methyl}piperazin-1-yl)-N-[(4-{[(trans-4-ethyl-4-hydroxycyclohexyl)methyl]amino}-3-nitrophenyl)sulfonyl]-2-(1H-pyrrolo[2,3-b]pyridin-5-yloxy)benzamide] returned a Ki of less than 0.01 nM.
In the case of `CC1(C)CCC(CN2CCN(c3ccc(C(=O)NS(=O)(=O)c4ccc(NCC5CCOCC5)c([N+](=O)[O-])c4)c(Oc4cc5cc[nH]c5cn4)c3)CC2)=C(c2ccc(Cl)cc2)C1` [compound H], the stability entry in data set [3] was “unstable”.
Compound `CC1(C)CCC(CN2CCN(c3ccc(C(=O)NS(=O)(=O)c4cnc(NC[C@H]5CC[C@@](C)(O)CC5)c([N+](=O)[O-])c4)c(Oc4cnc5[nH]ccc5c4)c3)CC2)=C(c2ccc(Cl)cc2)C1` [Example 371, 4-(4-{[2-(4-chlorophenyl)-4,4-dimethylcyclohex-1-en-1-yl]methyl}piperazin-1-yl)-N-[(6-{[(trans-4-hydroxy-4-methylcyclohexyl)methyl]amino}-5-nitropyridin-3-yl)sulfonyl]-2-(1H-pyrrolo[2,3-b]pyridin-5-yloxy)benzamide] gave a Ki on GST-Bcl-2 of less than 0.001 nM.
`CC[C@]1(O)CC[C@H](CNc2ccc(S(=O)(=O)NC(=O)c3ccc(N4CCN(CC5=C(c6ccc(Cl)cc6)CC(C)(C)CC5)CC4)cc3Oc3cnc4[nH]ccc4c3)cc2[N+](=O)[O-])CC1` [Example 359, 4-(4-{[2-(4-chlorophenyl)-4,4-dimethylcyclohex-1-en-1-yl]methyl}piperazin-1-yl)-N-[(4-{[(cis-4-ethyl-4-hydroxycyclohexyl)methyl]amino}-3-nitrophenyl)sulfonyl]-2-(1H-pyrrolo[2,3-b]pyridin-5-yloxy)benzamide] displayed an inhibition constant (Ki) at GST-Bcl-2 of less than 0.01 nM.
Turning to “4-(4-{[2-(4-chlorophenyl)-4,4-dimethylcyclohex-1-en-1-yl]methyl}piperazin-1-yl)-N-{[4-({[(Z)-4-hydroxy-1-adamantyl]methyl}amino)-3-nitrophenyl]sulfonyl}-2-(1H-pyrrolo[2,3-b]pyridin-5-yloxy)benzamide [Example 200]”, on GST-Bcl-2, the Ki was less than 0.01 nM. For the same compound, the EC50 with RS4;11 cells [1] was determined as 11 nM.
For `CC1(C)CCC(CN2CCN(c3ccc(C(=O)NS(=O)(=O)c4cnc(NC[C@H]5CC[C@](C)(O)CC5)c([N+](=O)[O-])c4)c(Oc4cnc5[nH]ccc5c4)c3)CC2)=C(c2ccc(Cl)cc2)C1` [Example 376, 4-(4-{[2-(4-chlorophenyl)-4,4-dimethylcyclohex-1-en-1-yl]methyl}piperazin-1-yl)-N-[(6-{[(cis-4-hydroxy-4-methylcyclohexyl)methyl]amino}-5-nitropyridin-3-yl)sulfonyl]-2-(1H-pyrrolo[2,3-b]pyridin-5-yloxy)benzamide], the Ki at GST-Bcl-2 was less than 0.001 nM.
Regarding “4-(4-{[2-(4-chlorophenyl)-4,4-dimethylcyclohex-1-en-1-yl]methyl}piperazin-1-yl)-N-[(4-{[(3R)-1-(2-fluoroethyl)pyrrolidin-3-yl]amino}-3-nitrophenyl)sulfonyl]-2-(1H-pyrrolo[2,b]pyridin-5-yloxy)benzamide [Example 183]”, the Ki on GST-Bcl-2 is less than 0.01 nM. Besides, the response in the data set on RS4;11 cells [1] was half-maximal at 17.5 nM (EC50).
Take “4-(4-{[2-(4-chlorophenyl)-4,4-dimethylcyclohex-1-en-1-yl]methyl}piperazin-1-yl)-N-{[4-({[cis-3-morpholin-4-ylcyclopentyl]methyl}amino)-3-nitrophenyl]sulfonyl}-2-(1H-pyrrolo[2,3-b]pyridin-5-yloxy)benzamide [Example 188]”: in the data set with RS4;11 cells [1], the midpoint of the response, the EC50, lay at 16.4 nM.
For `CC1(C)CCC(CN2CCN(c3ccc(C(=O)NS(=O)(=O)c4cnc(OC[C@]5(F)CC[C@@H](O)CC5)c(Cl)c4)c(Oc4cnc5[nH]ccc5c4)c3)CC2)=C(c2ccc(Cl)cc2)C1` [Example 350, N-({5-chloro-6-[(cis-1-fluoro-4-hydroxycyclohexyl)methoxy]pyridin-3-yl}sulfonyl)-4-(4-{[2-(4-chlorophenyl)-4,4-dimethylcyclohex-1-en-1-yl]methyl}piperazin-1-yl)-2-(1H-pyrrolo[2,3-b]pyridin-5-yloxy)benzamide], at GST-Bcl-2, the Ki was less than 0.01 nM.
The compound `CC1(C)CCC(CN2CCN(c3ccc(C(=O)NS(=O)(=O)c4ccc(OC[C@H]5CC[C@@](C)(O)CC5)c(Cl)c4)c(Oc4cnc5[nH]ccc5c4)c3)CC2)=C(c2ccc(Cl)cc2)C1` [Example 362, N-({3-chloro-4-[(trans-4-hydroxy-4-methylcyclohexyl)methoxy]phenyl}sulfonyl)-4-(4-{[2-(4-chlorophenyl)-4,4-dimethylcyclohex-1-en-1-yl]methyl}piperazin-1-yl)-2-(1H-pyrrolo[2,3-b]pyridin-5-yloxy)benzamide] displayed a Ki at GST-Bcl-2 of 0.016 nM. In addition, in the data set on RS4;11 cells [1], the response was half-maximal at 31.7 nM (EC50).

As a reminder, the Ki is the dissociation constant of the complex between target and ligand, obtained from inhibition or displacement. Read a low Ki as a stronger hold on the target. By EC50 is commonly meant the concentration needed to bring the measured effect to its halfway point. Low values mean greater potency, high ones weaker potency.
